Measurements taken from paper PMC7794217, “A bi-specific lectin from the mushroom Boletopsis grisea and its application in glycoanalytical workflows” (Scientific Reports, 2021).

Tests used:
Test in all cases: SPR (Biacore […]), equilibrium fit to […] model
Format in all cases: binding
[1] = target: T1, BGL (Boletopsis grisea lectin), recombinant wild-type rBGL (Boletopsis grisea, UniProt A0A1L2F5J1)
T1 construct: full-length 143 amino acid ORF (GenBank KT315924), expressed in E. coli, lacking N-terminal Met
T1 sequence (A0A1L2F5J1 2-143): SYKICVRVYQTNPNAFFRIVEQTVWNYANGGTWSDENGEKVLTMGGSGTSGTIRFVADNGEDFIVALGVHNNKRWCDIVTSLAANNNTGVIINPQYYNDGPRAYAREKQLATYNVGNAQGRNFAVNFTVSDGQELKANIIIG

[2] = target: T2, BGL (Boletopsis grisea lectin), S48K mutant (Boletopsis grisea, UniProt A0A1L2F5J1, S48K)
T2 construct: full-length BGL ORF expressed in E. coli
T2 sequence (A0A1L2F5J1 entry or part of it S48K): as the sequence (A0A1L2F5J1 2-143) above

[3] = target: T3, BGL (Boletopsis grisea lectin), G49N mutant (Boletopsis grisea, UniProt A0A1L2F5J1, G49N)
T3 construct: full-length BGL ORF expressed in E. coli
T3 sequence (A0A1L2F5J1 entry or part of it G49N): as the sequence (A0A1L2F5J1 2-143) above

[4] = target: T4, BGL (Boletopsis grisea lectin), H71E mutant (Boletopsis grisea, UniProt A0A1L2F5J1, H71E)
T4 construct: full-length BGL ORF expressed in E. coli
T4 sequence (A0A1L2F5J1 entry or part of it H71E): as the sequence (A0A1L2F5J1 2-143) above

`CC(=O)N[C@H]1C(O)O[C@H](CO)[C@@H](O)[C@@H]1O` (stereo partly shown) [GlcNAc] gave a Kd [1] of 1086 ± 8 µM, a Kd [2] of 1010 ± 20 µM and a Kd [3] of 910 ± 10 µM. The Kd [4] was 2330 ± 80 µM.
